Reference: patent publication US12691070B2, “Cationic lipids and preparation method thereof” (RiboX Therapeutics HK Limited, priority 2023, dated 2026)

Experiments:
[1] = test system: Hep G2 cells; assay: In vitro expression of firefly-luciferase, Hep G2; type: cell-based; settings: cirRNA (SEQ ID NO: 1) LNPs; firefly-luciferase luminescence; Hep G2 cells
Method in brief: (§1)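 Luminescence from cell lysates reports expression: luciferase activity was measured 72 h after transfection with 100 ng/mL RNA-LNPs encoding firefly luciferase.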

[2] = test system: Hep G2 cells; assay: In vitro toxicity (CellTiter-Glo cell viability), Hep G2; type: cell-based; settings: cirRNA (SEQ ID NO: 1) LNPs; Hep G2 cells;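 further: percent of untreated cells luminescence signal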
Method in brief: (§2)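 Toxicity of RNA-LNPs (1 μg/mL) is reported as cell viability, calculated from CellTiter-Glo luminescence measured at 72 hours after transfection.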

[3] = RNA encapsulation efficacy by Quant-IT Ribogreen kit; type: physicochemical; settings: LNP with cirRNA (SEQ ID NO: 1)
Method in brief: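 Ribogreen fluorescence with and without Triton X-100 gave encapsulation as 100% − (intact/lysed) signal; DLS size, PDI and zeta potential measured on a Zetasizer. Particles: 50:10:38.5:1.5 lipid mix, luciferase circRNA or mRNA, lipid:nucleotide 15 or 6, microfluidic assembly at pH 4.5, PBS-dialyzed.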

[4] = LNP zeta potential (Zetasizer); type: physicochemical; settings: LNP with cirRNA (SEQ ID NO: 1)
Method in brief: (§3)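 Dynamic light scattering and zeta potential measurements were run on PBS-dialyzed LNPs, which had been formed by microfluidic mixing at 12 ml/min with final lipid at 1.5 mM to 6 mM. RNA content and percent encapsulation were determined by Ribogreen with and without Triton X-100.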

[5] = test system: RAW 264.7 cells; assay: In vitro toxicity (CellTiter-Glo cell viability), RAW 264.7; type: cell-based; settings: cirRNA (SEQ ID NO: 1) LNPs; RAW 264.7 cells;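 further: percent of untreated cells luminescence signal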
Method in brief: as §2

[6] = test system: BALB/C mice; assay: In vivo expression, whole-body luminescence (IVIS); settings: cirRNA (SEQ ID NO: 1) LNPs, BALB/C mice
Procedure: 6-8 week old, female BALB/C mice were injected with 0.05 mg*kg-1 of RNA-LNPs encoding for firefly-luciferase by intravenous injection. At 6 hours post injection, animals were intraperitoneally injected with 15 mg/ml of Luciferin substrate and whole-body luminescence was determined by a bioluminescent in vivo imaging system (IVIS).

[7] = LNP size and polydispersity index (PDI) by dynamic light scattering; type: physicochemical; settings: LNP with cirRNA (SEQ ID NO: 1); for Size: in nm (unit assumed)
Method in brief: as §3

[8] = test system: RAW 264.7 cells; assay: In vitro expression of firefly-luciferase, RAW 264.7; type: cell-based; settings: cirRNA (SEQ ID NO: 1) LNPs; firefly-luciferase luminescence; RAW 264.7 cells
Method in brief: as §1

| Structure (SMILES) | In vitro Expression HepG2 [1] | In vitro Viability HepG2 [2] | Encapsulation Efficiency % [3] | Zeta (mV) [4] | In vitro Viability RAW [5] | In vivo Expression (Whole Body) [6] | PDI [7] | Size [7] | In vitro Expression RAW [8] |
| --- | --- | --- | --- | --- | --- | --- | --- | --- | --- |
| CCCCCCCCCC(=O)OCCCCCCCN(CCCCCCCOC(=O)CCCCCCCCC)CCOC(=O)NCCN1CCN(C)CC1 [Lipid 178] | 6.17E+04 | 99% | 95% | 16.19 mV | 92% | 1.31E+06 | 0.1534 | 61.85 | 1.31E+03 |
| CCCCCCOC(=O)CCCCCCCCCCN(CCCCCCCCCCC(=O)OCCCCCC)CCOC(=O)NCCN(C)C [Lipid 136, hexyl 10-(11-(hexyloxy)-11-oxoundecyl)-2-methyl-6-oxo-7-oxa-2,5,10-triazahenicosan-21-oate] | 2.15E+03 | 20% | 95% | 16.11 mV | 8% | 6.14E+03 | 0.146 | 143.7 | 1.93E+02 |
| CCCCCCCCC(CCCCCC)C(=O)OCCCCCCCCN(CCCCCCCCOC(=O)C(CCCCCC)CCCCCCCC)CCOC(=O)NCc1ccc(NC(=O)OC(C)(C)C)cc1 (stereo not drawn) [Lipid 8, ((2-(((4-((tert-butoxycarbonyl)amino)benzyl)carbamoyl)oxy)ethyl)azanediyl)bis(octane-8,1-diyl) bis(2-hexyldecanoate)] | 2.33E+01 | 110% | 84% | −20.4 mV | 105% | 9.52E+04 | 0.162 | 80.1 | 6.90E+01 |
| CCCCCCCCC(CCCCCCCC)OC(=O)CCCCCCCN(CCCCCCCCOC(=O)C(CCCCCC)CCCCCCCC)CCCNCCN(C)C (stereo not drawn) [Lipid 363] | 3.17E+05 | 112% | 92% | 5.356 mV | 65% | 2.22E+06 | 0.2547 | 130.7 | 9.15E+03 |
| CCCCCCCCCC(=O)OCCCCCCCN(CCCCCCCCOC(=O)C(CCCCCC)CCCCCCCC)CCOC(=O)NCc1ncc[nH]1 (stereo not drawn) [Lipid 198] | 2.19E+04 | 104% | 94% | −3.471 mV | 90% | 9.90E+06 | 0.2199 | 64.1 | 8.39E+04 |
| CCCCC/C=C\C/C=C\CCCCCCCCN(CCCCCCCC/C=C\CCCCCCCC)CCOC(=O)NCCN1CCN(C)CC1 [Lipid 70, 2-(((Z)-octadec-9-en-1-yl)((9Z,12Z)-octadeca-9,12-dien-1-yl)amino)ethyl (2-(4-methylpiperazin-1-yl)ethyl)carbamate] | 9.79E+04 | 120% | 97% | 11.22 mV | 104% | 2.08E+05 | 0.115 | 83.09 | 2.29E+03 |
| CCCCCCCCC(CCCCCC)C(=O)OCCCCCCCCN(CCCCCCCCCCC(=O)OCCCCCC)CCOC(=O)NCCN1CCN(C)CC1 (stereo not drawn) [Lipid 46, hexyl 11-((8-((2-hexyldecanoyl)oxy)octyl)(2-(((2-(4-methylpiperazin-1-yl)ethyl)carbamoyl)oxy)ethyl)amino)undecanoate] | 3.70E+01 | 102% | 100% | 3.255 mV | 99% | 1.92E+06 | 0.088 | 137.6 | 3.51E+02 |
| CCCCC/C=C\CCOC(=O)CCCCCN(CCCCCCCCOC(=O)C(CCCCCC)CCCCCCCC)CCOC(=O)NCCN(C)C (stereo not drawn) [Lipid 189] | 9.85E+04 | 89% | 95% | 18.88 mV | 1% | 1.79E+06 | 0.4058 | 84.04 | 2.71E+02 |
| CCCCCCCCC(CCCCCCCC)OC(=O)CCCCCCCN(CCCCCCCCOC(=O)C(CCCCCC)CCCCCCCC)CCOC(=O)NCCCN(C)C (stereo not drawn) [Lipid 146, heptadecan-9-yl 11-(8-((2-hexyldecanoyl)oxy)octyl)-2-methyl-7-oxo-8-oxa-2,6,11-triazanonadecan-19-oate] | 9.18E+05 | 41% | 87% | 20.28 mV | 99% | 4.74E+06 | 0.2699 | 59.34 | 8.92E+04 |
| CCCCCCCC/C=C\CCCCCCCCN(CCCCCCCCOC(=O)C(CCCCCC)CCCCCCCC)CCOC(=O)NCCN1CCCC1 (stereo not drawn) [Lipid 218] | 5.25E+06 | 71% | 96% | 5.94 mV | 62% | 7.53E+07 | 0.3124 | 96.36 | 9.16E+04 |
| CCCCCCCCCC(=O)OCCCCCCCCN(CCCCCCCCOC(=O)CCCCCCCCC)CCOC(=O)NCCN1CCCC1 [Lipid 209] | 3.81E+04 | 96% | 93% | 13.53 mV | 95% | 6.62E+05 | 0.1886 | 86.68 | 1.08E+02 |
| CCCCCCCCCCC(CCCCCCCC)COC(=O)CCCCCN(CCCCCC(=O)OCC(CCCCCCCC)CCCCCCCCCC)CCCOC(=O)NCCNC(C)C (stereo not drawn) [Lipid 368] | 1.22E+06 | 68% | 92% | 3.421 mV | 67% | 4.18E+06 | 0.2875 | 130.2 | 1.18E+05 |
| CCCCC/C=C\C/C=C\CCCCCCCCN(CCCCCCCC(=O)OC(CCCCCCCC)CCCCCCCC)CCOC(=O)NCCN1CCN(C)CC1 [Lipid 135, heptadecan-9-yl 8-((2-(((2-(4-methylpiperazin-1-yl)ethyl)carbamoyl)oxy)ethyl)((9Z,12Z)-octadeca-9,12-dien-1-yl)amino)octanoate] | 2.30E+06 | 91% | 100% | 8.469 mV | 103% | 3.51E+07 | 0.1211 | 150.9 | 9.80E+04 |
| CCCCCCCCCCCOC(=O)CCCCCN(CCCCCCCC(=O)OC(CCCCCCCC)CCCCCCCC)CCOC(=O)NCCCn1ccnc1 [Lipid 163] | 5.77E+04 | 92% | 79% | −3.271 mV | 88% | 7.96E+06 | 0.1586 | 61.87 | 3.32E+03 |
| CCCCCCCCCC(=O)OCCCCCCCN(CCCCCCCCOC(=O)C(CCCCCC)CCCCCCCC)CCOC(=O)NCCCN(C)C (stereo not drawn) [Lipid 193] | 5.28E+05 | 94% | 94% | 15.29 mV | 3% | 1.00E+06 | 0.3634 | 66.71 | 1.70E+03 |
| CCCCC/C=C\CCOC(=O)CCCCCN(CCCCCCCCOC(=O)C(CCCCCC)CCCCCCCC)CCOC(=O)NCc1ncc[nH]1 (stereo not drawn) [Lipid 185] | 9.12E+03 | 90% | 88% | −1.137 mV | 85% | 1.22E+08 | 0.102 | 69.89 | 5.29E+04 |
| CCCCCCCCCCC(CCCCCCCC)COC(=O)CCCCCN(CCCCCC(=O)OCC(CCCCCCCC)CCCCCCCCCC)CCOC(=O)NCCCN(CC)CC (stereo not drawn) [Lipid 172] | 1.12E+07 | 41% | 83% | 1.36 mV | 90% | 2.14E+07 | 0.2521 | 67.53 | 5.83E+05 |
